Results on five molecules are retold here after PubChem BioAssay AID1259407 (Chemical Carcinogenesis Research Information System (CCRIS), 2018).

Calls of active or inactive are those of the source. How the calls were made is not given here.

The test system of this data set is CCRIS mutagenicity, Ames/micronucleus/aberration tests. Description: CCRIS mutagenicity studies.
The mark [1] stands for this setting: Test System: AMES SALMONELLA TYPHIMURIUM, Strain/Indicator: TA98, Metabolic Activation: NONE, Method: STANDARD PLATE.
Setting [2] is: Test System: AMES SALMONELLA TYPHIMURIUM, Strain/Indicator: TA100, Metabolic Activation: NONE, Method: STANDARD PLATE.
[3] abbreviates: Test System: AMES SALMONELLA TYPHIMURIUM, Strain/Indicator: TA1535, Metabolic Activation: NONE, Method: STANDARD PLATE.
Where [4] appears, read: Test System: AMES SALMONELLA TYPHIMURIUM, Strain/Indicator: TA1537, Metabolic Activation: NONE, Method: STANDARD PLATE.

For `O=CC(O)C(O)C(O)C(O)COC1OC(COC2OC(CO)C(O)C(O)C2O)C(O)C(O)C1O` (stereo unspecified), the mutagenic call is, setting by setting: (Test System: AMES SALMONELLA TYPHIMURIUM, Strain/Indicator: TA98, Metabolic Activation: HAMSTER, LIVER, S-9, AROCLOR 1254, Method: STANDARD PLATE) “inactive; negative”; under setting [1], “inactive; negative”; (Test System: AMES SALMONELLA TYPHIMURIUM, Strain/Indicator: TA98, Metabolic Activation: RAT, LIVER, S-9, AROCLOR 1254, Method: STANDARD PLATE) “inactive; negative”; (Test System: AMES SALMONELLA TYPHIMURIUM, Strain/Indicator: TA100, Metabolic Activation: HAMSTER, LIVER, S-9, AROCLOR 1254, Method: STANDARD PLATE) “inactive; negative”; under setting [2], “inactive; negative”; (Test System: AMES SALMONELLA TYPHIMURIUM, Strain/Indicator: TA100, Metabolic Activation: RAT, LIVER, S-9, AROCLOR 1254, Method: STANDARD PLATE) “inactive; negative”. The mutagenic call is, setting by setting: (Test System: AMES SALMONELLA TYPHIMURIUM, Strain/Indicator: TA1535, Metabolic Activation: HAMSTER, LIVER, S-9, AROCLOR 1254, Method: STANDARD PLATE) “inactive; negative”; under setting [3], “inactive; negative”; (Test System: AMES SALMONELLA TYPHIMURIUM, Strain/Indicator: TA1535, Metabolic Activation: RAT, LIVER, S-9, AROCLOR 1254, Method: STANDARD PLATE) “inactive; negative”; (Test System: AMES SALMONELLA TYPHIMURIUM, Strain/Indicator: TA1537, Metabolic Activation: HAMSTER, LIVER, S-9, AROCLOR 1254, Method: STANDARD PLATE) “inactive; negative”; under setting [4], “inactive; negative”; (Test System: AMES SALMONELLA TYPHIMURIUM, Strain/Indicator: TA1537, Metabolic Activation: RAT, LIVER, S-9, AROCLOR 1254, Method: STANDARD PLATE) “inactive; negative”. The mutagenic call is, setting by setting: (Test System: AMES SALMONELLA TYPHIMURIUM, Strain/Indicator: TA1538, Metabolic Activation: HAMSTER, LIVER, S-9, AROCLOR 1254, Method: STANDARD PLATE) “inactive; negative”; (Test System: AMES SALMONELLA TYPHIMURIUM, Strain/Indicator: TA1538, Metabolic Activation: NONE, Method: STANDARD PLATE) “inactive; negative”; (Test System: AMES SALMONELLA TYPHIMURIUM, Strain/Indicator: TA1538, Metabolic Activation: RAT, LIVER, S-9, AROCLOR 1254, Method: STANDARD PLATE) “inactive; negative”; (Test System: Mouse lymphoma, Strain/Indicator: L5178Y (tk+/tk-), Metabolic Activation: None, Method: Suspension/plate) “inactive; negative”; (Test System: Mouse lymphoma, Strain/Indicator: L5178Y (tk+/tk-), Metabolic Activation: Rat, Liver, S-9, Aroclor 1254, Method: Suspension/plate) “inactive; negative”.

Consider `COC(=O)c1cc(-c2ccc(N)c(C(=O)OC)c2)ccc1N`, for which the mutagenic call is “inactive; negative” (Test System: AMES SALMONELLA TYPHIMURIUM, Strain/Indicator: TA98(1,8-DNP6), Metabolic Activation: NONE, Method: STANDARD PLATE); “active; positive” (Test System: AMES SALMONELLA TYPHIMURIUM, Strain/Indicator: TA98(1,8-DNP6), Metabolic Activation: S-9, Method: STANDARD PLATE); “inactive; negative” under setting [1]; “active; positive” (Test System: AMES SALMONELLA TYPHIMURIUM, Strain/Indicator: TA98, Metabolic Activation: S-9, Method: STANDARD PLATE); “inactive; negative” under setting [2]; “inactive; negative” (Test System: AMES SALMONELLA TYPHIMURIUM, Strain/Indicator: TA100, Metabolic Activation: S-9, Method: STANDARD PLATE).

For `COc1ccc(CC2CO2)cc1` (stereo unspecified), the mutagenic call is, setting by setting: (Test System: AMES SALMONELLA TYPHIMURIUM, Strain/Indicator: TA100, Metabolic Activation: NONE, Method: PREINCUBATION) “active; positive”; under setting [2], “active; positive”; (Test System: AMES SALMONELLA TYPHIMURIUM, Strain/Indicator: TA1535, Metabolic Activation: NONE, Method: PREINCUBATION) “active; positive”; under setting [3], “active; positive”.

On to `CS(=O)(=O)Nc1ccc(Nc2c3ccc(N=[N+]=[N-])cc3nc3ccc(N=[N+]=[N-])cc23)cc1`, for which the mutagenic call under setting [4] was “inactive; negative”.

For the molecule `CC(C)c1ccccc1`, the mutagenic call was “active; positive (both trials)” (End Point: In vivo micronucleus, Test System: Polychromatic erythrocytes in bone marrow, Species: Rat, Strain/Sex: F344/N / Male, Route: Intraperitoneal); “inactive; negative” (End Point: In vivo micronucleus, Test System: Polychromatic erythrocytes in peripheral blood, Species: Mouse, Strain/Sex: B6C3F1/ Female, Route: Inhalation); “inactive; negative” (End Point: In vivo micronucleus, Test System: Polychromatic erythrocytes in peripheral blood, Species: Mouse, Strain/Sex: B6C3F1/ Male, Route: Inhalation); “inactive; negative” (Test System: Ames Salmonella typhimurium, Strain/Indicator: TA97, Metabolic Activation: Hamster, Liver, S-9, Aroclor 1254 (10%), Method: Preincubation); “inactive; negative” (Test System: Ames Salmonella typhimurium, Strain/Indicator: TA97, Metabolic Activation: Hamster, Liver, S-9, Aroclor 1254 (30%), Method: Preincubation); “inactive; negative” (Test System: Ames Salmonella typhimurium, Strain/Indicator: TA97, Metabolic Activation: None, Method: Preincubation). For the same molecule, the mutagenic call was “inactive; negative” (Test System: Ames Salmonella typhimurium, Strain/Indicator: TA97, Metabolic Activation: Rat, Liver, S-9, Aroclor 1254 (10%), Method: Preincubation); “inactive; negative” (Test System: Ames Salmonella typhimurium, Strain/Indicator: TA97, Metabolic Activation: Rat, Liver, S-9, Aroclor 1254 (30%), Method: Preincubation); “inactive; negative” (Test System: Ames Salmonella typhimurium, Strain/Indicator: TA98, Metabolic Activation: Hamster, Liver, S-9, Aroclor 1254 (10%), Method: Preincubation); “inactive; negative” (Test System: Ames Salmonella typhimurium, Strain/Indicator: TA98, Metabolic Activation: Hamster, Liver, S-9, Aroclor 1254 (30%), Method: Preincubation); “inactive; negative” (Test System: Ames Salmonella typhimurium, Strain/Indicator: TA98, Metabolic Activation: None, Method: Preincubation); “inactive; negative” (Test System: Ames Salmonella typhimurium, Strain/Indicator: TA98, Metabolic Activation: Rat, Liver, S-9, Aroclor 1254 (10%), Method: Preincubation). The mutagenic call was “inactive; negative” (Test System: Ames Salmonella typhimurium, Strain/Indicator: TA98, Metabolic Activation: Rat, Liver, S-9, Aroclor 1254 (30%), Method: Preincubation); “inactive; negative” (Test System: Ames Salmonella typhimurium, Strain/Indicator: TA100, Metabolic Activation: Hamster, Liver, S-9, Aroclor 1254 (10%), Method: Preincubation); “inactive; negative” (Test System: Ames Salmonella typhimurium, Strain/Indicator: TA100, Metabolic Activation: Hamster, Liver, S-9, Aroclor 1254 (30%), Method: Preincubation); “inactive; negative” (Test System: Ames Salmonella typhimurium, Strain/Indicator: TA100, Metabolic Activation: None, Method: Preincubation); “inactive; negative” (Test System: Ames Salmonella typhimurium, Strain/Indicator: TA100, Metabolic Activation: Rat, Liver, S-9, Aroclor 1254 (10%), Method: Preincubation); “inactive; negative” (Test System: Ames Salmonella typhimurium, Strain/Indicator: TA100, Metabolic Activation: Rat, Liver, S-9, Aroclor 1254 (30%), Method: Preincubation). Moreover, the mutagenic call (Test System: Ames Salmonella typhimurium, Strain/Indicator: TA1535, Metabolic Activation: Hamster, Liver, S-9, Aroclor 1254 (10%), Method: Preincubation) was “inactive; negative”; the mutagenic call (Test System: Ames Salmonella typhimurium, Strain/Indicator: TA1535, Metabolic Activation: Hamster, Liver, S-9, Aroclor 1254 (30%), Method: Preincubation) was “inactive; negative”; the mutagenic call (Test System: Ames Salmonella typhimurium, Strain/Indicator: TA1535, Metabolic Activation: None, Method: Preincubation) is “inactive; negative”; the mutagenic call (Test System: Ames Salmonella typhimurium, Strain/Indicator: TA1535, Metabolic Activation: Rat, Liver, S-9, Aroclor 1254 (10%), Method: Preincubation) was “inactive; negative”; the mutagenic call (Test System: Ames Salmonella typhimurium, Strain/Indicator: TA1535, Metabolic Activation: Rat, Liver, S-9, Aroclor 1254 (30%), Method: Preincubation) is “inactive; negative”.
